Experimental data published in patent US8236790B2, “Benzothiadiazepine compounds, a process for their preparation and pharmaceutical compositions containing them” (Les Laboratories Servier, priority 2009, dated 2012).

How the values were obtained:
[1] = system: NMDA-type glutamatergic receptors from rat cortex; test: Current induced by NMDA in oocytes of Xenopus laevis injected with poly(A+) mRNA from rat cortex (two-electrode voltage clamp); type: cell-based; settings: NMDA 3×10^−4M with 3×10^−5M glycine, −60 mV, magnesium-free OR2; read-out: IC50 (concentration of product which inhibits the current induced by NMDA by 50%)
Protocol: Effect of Compounds on the Current Induced by NMDA in Oocytes of Xenopus laevis Injected with Poly(A^+) mRNA from Rat Cortex
Electrophysiological recordings are carried out on oocytes of Xenopus laevis injected with poly(A^+) mRNA from rat cortex and expressing, inter alia, NMDA-type glutamatergic receptors from rat cortex, in a plexiglass recording chamber continuously perfused with OR2 solution not containing magnesium (which blocks the opening of the NMDA receptor channel) and at ambient temperature. The inward current induced by an application of NMDA is recorded at a resting potential of −60 mV, using a standard two-electrode voltage clamp technique. The NMDA (3×10^−4M) is applied with the perfusion solution in the presence of 3×10^−5M glycine for 30 seconds every 5 minutes, at a constant perfusion rate of 3 ml/min. The amplitude of the current induced by NMDA is measured at the peak of the current. The tested compounds are applied at increasing doses to the same oocyte in the perfusion solution 45 seconds before, 30 seconds during and 30 seconds after the application of 3×10^−4M NMDA in the presence of 3×10^−5M glycine every 5 minutes. The amplitude of the current induced by NMDA in the presence of compound is normalised and expressed as a percentage of that induced in the same oocyte in the absence of product, which corresponds to 100% response. […]

[2] = system: CD1 mouse; test: Object recognition in the CD1 mouse; type: in vivo; settings: doses of 1 and 3 mg/kg PO, 60 minutes before each of the 3 phases
Description: Object Recognition in the CD1 Mouse
The object recognition test (Behay. Brain Res., 1988, 31, 47-59) is based on the spontaneous exploratory activity of the animal and has the characteristics of episodic memory in humans. This memory test is sensitive to ageing (Eur. J. Pharmacol., 1997, 325, 173-180) and to cholinergic dysfunctions (Pharm. Biochem. Behay., 1996, 53(2), 277-283) and is based on the differences in the exploration of 2 objects of fairly similar shape—one familiar, the other new. The test procedure, which has been adapted for the CD1 mouse, comprises 3 phases which take place in the same test enclosure. During the first phase, which lasts 40 minutes, the mice are habituated to the environment. During the second phase, which takes place the next day, an object is placed in the enclosure and the mouse is free to explore it. Once the duration of that exploration has reached 20 seconds, the mouse is taken out of the enclosure. In the course of the third phase (5 minutes), 24 hours later, the same object is presented (acquiring the status of a “familiar” object), as well as a new object. The duration of exploration, expressed in seconds, is timed for each of the two objects.

[3] = system: AMPA receptor; test: Membrane depolarisation brought about by AMPA in primary cultures of rat neurons (fluorescence); type: cell-based; settings: read-out: EC2X (the concentration of compound which doubles the membrane potential brought about by AMPA); cultured rat embryonic neurons, AMPA 3 to 100 μM
Protocol: Study of the Effect of Compounds on the Membrane Depolarisation Brought about by AMPA in Primary Cultures of Rat Neurons
The test comprises the in vitro measurement, by means of fluorescence, of the membrane depolarisation brought about in cultured rat embryonic neurons by the joint action of AMPA and the compound under test, compared to the action of AMPA alone. The brain cells are placed in culture and kept in a cell culture incubator for 18 days. After incubation, the culture medium is withdrawn and replaced with fluorescent probe loading medium for measurement of the membrane potential (20 μl; membrane potential kit from Molecular Devices) and left at ambient temperature for 1 hour. The base fluorescence of the wells is read (FDSS apparatus from Hamamatsu) and the cells are then injected with AMPA (20 μl; concentration range: from 3 to 100 μM) and the action of the AMPA is measured kinetically. The test compound is then introduced into the wells (20 μl; in a concentration range crossed with that of AMPA) and the action of the compound is measured kinetically. At the end of each of the two periods of kinetic measurement, the result for each well is the average reading over the final 15 seconds of the period. The curves are plotted of the effect of AMPA at the various concentrations of compound. […]

| IC50 [1] | melting point | SMILES | exploration of the new object compared to the familiar object [2] | EC2X [3] |
| --- | --- | --- | --- | --- |
| 9 µM |  | O=S1(=O)NCCNc2ccc(Oc3ccccc3)cc21 [Example 1, 8-phenoxy-2,3,4,5-tetrahydro-1,2,5-benzothiadiazepine 1,1-dioxide] | significantly greater exploration of the new object | 25 µM |
|  | 134 °C | O=S1(=O)NCCNc2ccc(Oc3ccc(OCc4ccccc4)cc3)cc21 [Example 8, 8-[4-(benzyloxy)phenoxy]-2,3,4,5-tetrahydro-1,2,5-benzothiadiazepine 1,1-dioxide] |  |  |
